The record followed here is patent publication US6384080B1, “Anthranilic acid derivatives as inhibitors of the cGMP-phosphodiesterase” (Fujisawa Pharmaceutical Co., Ltd., priority 1998, dated 2002).

Molecules are shown by their SMILES.

For the experiment, the target named is T1, human platelet PDE-V (Homo sapiens, UniProt O76074).
T1 construct: Human platelet cGMP-PDE was separated from other isozymes in human platelets; from tissue; host or cells: human platelets
The experiment can be described thus: cGMP-Phosphodiesterase (PDE) assay, enzymatic inhibitory test. The following applies: human platelet PDE-V; 0.1 μM [3H]-cGMP substrate, 30° C., 10 minutes; read-out: Inhibitory activity IC50. The class given is biochemical. How it is done:
cGMP-Phosphodiesterase (PDE) Assay
Human platelet cGMP-PDE was separated from other isozymes in human platelets by a modification of the method of Thompson et. al. (see Cyclic Nucleotide Phosphodiesterase (PDE), in Methods of Enzymatic analysis, Vol 4, p127-234, 1984). In enzyme inhibition assays, the test compounds were dissolved in DMSO and then diluted with assay buffer (50 mM Tris-HCl, 0.077 mg/ml dithiothreitol and 10 mg/ml snake venom, 1 mM EGTA, pH 8.0), at final concentrations ranging from 10^−10 to 10^−6 M. Assays were performed at 0.1 μM substrate ([^3H]-cGMP) concentration, at 30° C. for 10 minutes using enzyme dilutions which gave 10-20% hydrolysis of substrate. Each assay was initiated by addition of substrate and terminated by addition of anion exchange resin (Dowex® 1-X8, 250 mg/mg) followed by centrifugation for 10 minutes (3000 rpm, at 4° C.). Radioactivity of supernatant (^3H-GMP) was assayed by liquid scintillation counting.
A word on the IC50: it is the concentration that inhibits the measured activity by half. On to `O=C(NCc1ccc(Cl)cc1)c1cc([N+](=O)[O-])ccc1NC1CCCC1` [N-(4-Chlorobenzyl)-2-(cyclopentylamino)-5-nitrobenzamide], for which the IC50 was less than 10 nM.

Consider `O=C(NCc1cc2ccccc2o1)c1cc([N+](=O)[O-])ccc1N[C@H]1CC[C@@H](O)CC1` [N-(Benzofuran-2-ylmethyl)-2-(cis-4-hydroxycyclohexylamino)-5-nitrobenzamide], for which the IC50 is less than 10 nM.

As to `CC[C@@H](CCl)Nc1ccc([N+](=O)[O-])cc1C(=O)NCc1ccc2c(c1)OCO2` [(S)-2-[1-(chloromethyl)propylamino]-5-nitro-N-(1,3-benzodioxol-5-ylmethyl)benzamide], the IC50 was less than 10 nM.

`COc1c(Cl)cc(CNC(=O)c2cc([N+](=O)[O-])ccc2N[C@H]2CC[C@H](O)CC2)cc1Cl` [N-(3,5-Dichloro-4-methoxybenzyl)-2-(trans-4-hydroxycyclohexylamino)-5-nitrobenzamide]: the half-maximal inhibitory concentration (IC50) was less than 10 nM.

For `O=C(NCc1cc2ccccc2s1)c1cc([N+](=O)[O-])ccc1N[C@H]1CC[C@@H](O)CC1` [N-(Benzo[b]thiophen-2-ylmethyl)-2-(cis-4-hydroxycyclohexylamino)-5-nitrobenzamide], the half-inhibitory concentration (IC50) is less than 10 nM.

`C[C@@H](O)[C@@H](CO)Nc1ccc([N+](=O)[O-])cc1C(=O)NCc1ccc2c(c1)OCO2` [2-[(1R, 2R)-2-Hydroxy-1-(hydroxymethyl)propylamino]-5-nitro-N-(1,3-benzodioxol-5-ylmethyl)benzamide]: the IC50 was less than 10 nM.

In the case of `Nc1ccc(CNC(=O)c2cc([N+](=O)[O-])ccc2NC2CCCC2)cc1` [N-(4-Aminobenzyl)-2-(cyclopentylamino)-5-nitrobenzamide], the IC50 is less than 10 nM.

Take `COc1cc(CNC(=O)c2cc([N+](=O)[O-])ccc2NC(CO)CO)ccc1OCC1CCC1` [N-(4-Cyclobutylmethoxy-3-methoxybenzyl)-2-[2-hydroxy-1-(hydroxymethyl)ethylamino]-5-nitrobenzamide]: the IC50 was less than 10 nM.

Take `O=C(NCc1ccccc1)c1cc([N+](=O)[O-])ccc1N[C@@H]1CCC[C@H]1O` (relative stereo) [N-Benzyl-2-(trans-2-hydroxycyclopentylamino)-5-nitrobenzamide]: the IC50 is less than 10 nM.

Turning to `Nc1ccc(CNC(=O)c2cc([N+](=O)[O-])ccc2NC2CCCC2)c(Cl)c1` [N-(4-amino-2-chlorobenzyl)-2-(cyclopentylamino)-5-nitrobenzamide], the IC50 was less than 10 nM.

With `O=C(NCCc1ccccc1)c1cc([N+](=O)[O-])ccc1NC1CCCC1` [2-(Cyclopentylamino)-5-nitro-N-phenethylbenzamide], the IC50 is less than 10 nM.

In the case of `CCCCCCNC(=O)c1cc([N+](=O)[O-])ccc1NC1CCCC1` [2-(Cyclopentylamino)-N-hexyl-5-nitrobenzamide], the IC50 was less than 10 nM.

On to `COc1ccc(CNC(=O)c2cc([N+](=O)[O-])ccc2NC2CCNCC2)cc1OC` [N-(3,4-Dimethoxybenzyl)-5-nitro-2-(4-piperidinylamino)benzamide], for which the half-maximal inhibitory concentration (IC50) was less than 10 nM.

For `O=C(NCc1nc2ccccc2[nH]1)c1cc([N+](=O)[O-])ccc1NC1CCCC1` [N-[(2-Benzimidazolyl)methyl]-2-(cyclopentylamino)-5-nitrobenzamide], the half-maximal inhibitory concentration (IC50) is less than 10 nM.

Consider `COc1ccc(CNC(=O)c2cc([N+](=O)[O-])ccc2N[C@H]2CC[C@@H](NC=O)CC2)cc1OC` [2-(cis-4-Formamidocyclohexylamino)-N-(3,4-dimethoxybenzyl)-5-nitrobenzamide], for which the IC50 was less than 10 nM.

As to `COc1cc(CNC(=O)c2cc([N+](=O)[O-])ccc2NC2CCCC2)ccc1O` [2-(Cyclopentylamino)-N-(4-hydroxy-3-methoxybenzyl)-5-nitrobenzamide], the IC50 was less than 10 nM.

For the compound `O=C(NCc1ccc2c(c1)OCO2)c1cc([N+](=O)[O-])ccc1N[C@H]1CC[C@@H](Cl)CC1` [2-(cis-4-chlorocyclohexylamino)-5-nitro-N-(1,3-benzodioxol-5-ylmethyl)benzamide], the concentration for half-maximal inhibition (IC50) is less than 10 nM.

With `O=C(NCc1ccccc1Cl)c1cc([N+](=O)[O-])ccc1NC1CCCC1` [N-(2-Chlorobenzyl)-2-cyclopentylamino-5-nitrobenzamide], the half-inhibitory concentration (IC50) was less than 10 nM.

As to `CCCNC(=O)N[C@H]1CC[C@H](Nc2ccc([N+](=O)[O-])cc2C(=O)NCc2ccc(OC)c(OC)c2)CC1` [N-(3,4-dimethoxybenzyl)-5-nitro-2-[trans-4-(3-propylureido)cyclohexylamino]benzamide], the 50% inhibitory concentration (IC50) was less than 10 nM.

Turning to `COc1ccc(CNC(=O)c2cc([N+](=O)[O-])ccc2N[C@H](CO)CNC=O)cc1OC` [(S)-N-(3,4-Dimethoxybenzyl)-2-[1-(formamidomethyl)-2-hydroxyethylamino]-5-nitrobenzamide], the IC50 is less than 10 nM.

With `O=C(NCc1ccc2c(c1)OCO2)c1cc([N+](=O)[O-])ccc1NC1CCN(Cc2ccccc2)CC1` [2-(1-Benzylpiperidin-4-ylamino)-5-nitro-N-(1,3-benzodioxol-5-ylmethyl)benzamide], the half-maximal inhibitory concentration (IC50) is less than 10 nM.

As to `O=C(NCCCc1ccccc1)c1cc([N+](=O)[O-])ccc1NC1CCCC1` [2-(Cyclopentylamino)-5-nitro-N-(3-phenylpropyl)benzamide], the 50% inhibitory concentration (IC50) is less than 10 nM.

In the case of `O=C(NCc1ccc2c(c1)OCO2)c1cc([N+](=O)[O-])ccc1NC1CCC(C(=O)O)CC1` (stereo not shown) [2-(4-carboxycyclohexylamino)-5-nitro-N-(1,3-benzodioxol-5-ylmethyl)benzamide], the IC50 was less than 10 nM.

In the case of `COC(=O)[C@@H](C)Nc1ccc([N+](=O)[O-])cc1C(=O)NCc1ccc2c(c1)OCO2` [(R)-2-[1-(Methoxycarbonyl)ethylamino]-5-nitro-N-(1,3-benzodioxol-5-ylmethyl)benzamide], the concentration for half-maximal inhibition (IC50) was less than 10 nM.

Turning to `O=C(NCc1ccc2c(c1)OCO2)c1cc([N+](=O)[O-])ccc1NC1CCNCC1` [5-nitro-2-(4-piperidinylamino)-N-(1,3-benzodioxol-5-ylmethyl)benzamide], the 50% inhibitory concentration (IC50) is less than 10 nM.

In the case of `CCOC(=O)N1CCC(Nc2ccc([N+](=O)[O-])cc2C(=O)NCc2ccc3c(c2)OCO3)CC1` [2-[1-(Ethoxycarbonyl)piperidin-4-ylamino]-5-nitro-N-(1,3-benzodioxol-5-ylmethyl)benzamide], the 50% inhibitory concentration (IC50) is less than 10 nM.

Take `C[C@H](CO)Nc1ccc([N+](=O)[O-])cc1C(=O)NCc1ccc(-c2ccccc2)cc1` [(R)-2-(2-Hydroxy-1-methylethyl)amino-5-nitro-N-(4-phenybenzyl)benzamide]: the concentration for half-maximal inhibition (IC50) is less than 10 nM.

As for `COc1ccc(CNC(=O)c2cc(C(F)(F)F)ccc2NC(CO)CO)cc1Cl` [N-(3-Chloro-4-methoxybenzyl)-2-[2-hydroxy-1-(hydroxymethyl)ethylamino]-5-(trifluoromethyl)benzamide], the IC50 was less than 10 nM.

For the compound `O=C(NCc1ccc2c(c1)OCCO2)c1cc([N+](=O)[O-])ccc1N[C@H]1CC[C@H](O)CC1` [N-(3,4-Ethylenedioxybenzyl)-2-(trans-4-hydroxycyclohexylamino)-5-nitrobenzamide], the IC50 is less than 10 nM.

Turning to `O=C(NCc1ccc(Cl)cc1Cl)c1cc([N+](=O)[O-])ccc1NC1CCCC1` [2-(Cyclopentylamino)-N-(2,4-dichlorobenzyl)-5-nitrobenzamide], the IC50 was less than 10 nM.

With `CCOc1cc(CNC(=O)c2cc([N+](=O)[O-])ccc2N[C@H]2CC[C@@H](O)CC2)ccc1Cl` [N-(4-Chloro-3-ethoxybenzyl)-2-(cis-4-hydroxycyclohexylamino)-5-nitrobenzaride], the 50% inhibitory concentration (IC50) was less than 10 nM.
